Bounds are passed on as bounds.

Assay type in all cases: cell-based
One assay relates to JeKo-1 cells. Nature of the assay: Antiproliferative effect, MTS cell viability assay, JeKo-1 cells. The following applies: Homo sapiens; JeKo-1 mantle cell lymphoma cells; read-out: IC50 (anti-proliferation) JeKO-1 cells. The gist of the method:
(§1)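 Readout was MTS-derived formazan absorbance (490 nm) reflecting metabolically active cells. Treatment lasted 72 h over a 0–10 μM range (0.001, 0.01, 0.1, 1, 10 μM) in JeKo-1 and Mino B-cell malignancy cells.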
For orientation: Formazan colour is commonly taken as a measure of viable cells.

Another assay relates to Mino cells. The assay can be described thus: Antiproliferative effect, MTS cell viability assay, Mino cells. The following applies: Homo sapiens, MINO, Mino mantle cell lymphoma cells; read-out: IC50 (anti-proliferation) Mino cells. The gist of the method:
as §1

In the next assay the target is BTK (Homo sapiens, UniProt Q06187). The assay can be described thus: BTK degradation, DC50 and Dmax of Table 1 (cell line not given). Details: endogenous in cells. The following applies: for DC50: concentration giving 50% reduction of BTK expression level.
Chain of BTK (Q06187 whole entry): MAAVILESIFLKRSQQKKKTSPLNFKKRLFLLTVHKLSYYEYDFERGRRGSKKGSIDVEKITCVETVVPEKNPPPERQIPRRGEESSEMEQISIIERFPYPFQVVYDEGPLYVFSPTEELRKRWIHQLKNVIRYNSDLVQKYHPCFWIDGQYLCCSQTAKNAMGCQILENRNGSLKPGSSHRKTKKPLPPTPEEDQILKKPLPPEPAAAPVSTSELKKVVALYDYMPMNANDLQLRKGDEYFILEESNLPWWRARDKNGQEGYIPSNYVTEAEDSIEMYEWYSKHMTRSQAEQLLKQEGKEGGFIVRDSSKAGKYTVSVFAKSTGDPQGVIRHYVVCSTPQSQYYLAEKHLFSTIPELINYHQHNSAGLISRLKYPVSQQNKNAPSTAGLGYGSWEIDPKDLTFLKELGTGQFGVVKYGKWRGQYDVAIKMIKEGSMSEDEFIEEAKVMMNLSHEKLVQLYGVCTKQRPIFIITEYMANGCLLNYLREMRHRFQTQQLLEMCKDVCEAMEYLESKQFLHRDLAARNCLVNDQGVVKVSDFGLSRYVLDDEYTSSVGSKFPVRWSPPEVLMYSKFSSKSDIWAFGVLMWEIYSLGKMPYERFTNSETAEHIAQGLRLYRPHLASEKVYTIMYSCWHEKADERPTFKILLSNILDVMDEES

What is called Dmax is the greatest extent of degradation seen. A higher Dmax goes with a fuller loss of target. Broadly, the DC50 is the midpoint of the concentration-degradation curve. Higher therefore signals degradation only at high concentration. Turning to `Nc1ncnc2c1c(-c1ccc(Oc3ccccc3)cc1)nn2[C@@H]1CCCN(C2CCN(CC3CCN(c4ccc5c(c4)CN(C4CCC(=O)NC4=O)C5=O)CC3)CC2)C1` (stereo partly drawn) [Compound 144, 3-(5-(4-(((R)-3-(4-amino-3-(4-phenoxyphenyl)-1H-pyrazolo[3,4-d]pyrimidin-1-yl)-[1,4′-bipiperidin]-1′-yl)methyl)piperidin-1-yl)-1-oxoisoindolin-2-yl)piperidine-2,6-dione], the IC50 is more than 10 µM in the assay on JeKo-1 cells and 1 to 10 µM in the assay with Mino cells. In addition, at BTK, the maximal degradation (Dmax) is more than 90%. This molecule yielded a DC50 on BTK of 0.01 to 0.05 µM.

Take `Nc1ncnc2c1c(-c1ccc(Oc3ccccc3)cc1)nn2[C@@H]1CCCN(C2CCN(CCC3CCN(c4ccc5c(c4)C(=O)N(C4CCC(=O)NC4=O)C5=O)CC3)CC2)C1` (stereo partly drawn) [Compound 145, 5-(4-(2-((R)-3-(4-amino-3-(4-phenoxyphenyl)-1H-pyrazolo[3,4-d]pyrimidin-1-yl)-[1,4′-bipiperidin]-1′-yl)ethyl)piperidin-1-yl)-2-(2,6-dioxopiperidin-3-yl)isoindoline-1,3-dione]: the IC50 in the assay with JeKo-1 cells and in the assay with Mino cells was more than 10 µM each time. On BTK, this molecule yielded a Dmax of more than 75%. Also, the 50% degradation concentration (DC50) on BTK was more than 0.05 µM.

With `Nc1ncnc2c1c(-c1ccc(Oc3ccccc3)cc1)nn2[C@@H]1CCCN(C2CCN(CCC3CCN(c4ccc5c(c4)CN(C4CCC(=O)NC4=O)C5=O)CC3)CC2)C1` (stereo partly drawn) [Compound 146, 3-(5-(4-(2-((R)-3-(4-amino-3-(4-phenoxyphenyl)-1H-pyrazolo[3,4-d]pyrimidin-1-yl)-[1,4′-bipiperidin]-1′-yl)ethyl)piperidin-1-yl)-1-oxoisoindolin-2-yl)piperidine-2,6-dione], the IC50 in the assay on JeKo-1 cells was more than 10 µM. In the assay on Mino cells, the IC50 lay within 1 to 10 µM. On BTK, the Dmax is more than 75% and the DC50 is more than 0.05 µM.

Turning to `Nc1ncnc2c1c(-c1ccc(Oc3ccccc3)cc1)nn2[C@@H]1CCCN(C2CCN(CCN3CCN(c4ccc5c(c4)C(=O)N(C4CCC(=O)NC4=O)C5=O)CC3)CC2)C1` (stereo partly drawn) [Compound 147, 5-(4-(2-((R)-3-(4-amino-3-(4-phenoxyphenyl)-1H-pyrazolo[3,4-d]pyrimidin-1-yl)-[1,4′-bipiperidin]-1′-yl)ethyl)piperazin-1-yl)-2-(2,6-dioxopiperidin-3-yl)isoindoline-1,3-dione], in the assay with JeKo-1 cells, the IC50 is more than 10 µM. For the same molecule, the IC50 with Mino cells is more than 10 µM. At BTK, this molecule registered a Dmax of more than 75% and a DC50 of 0.01 to 0.05 µM.

On to `Nc1ncnc2c1c(-c1ccc(Oc3ccccc3)cc1)nn2[C@@H]1CCCN(C2CCN(CCN3CCN(c4ccc5c(c4)CN(C4CCC(=O)NC4=O)C5=O)CC3)CC2)C1` (stereo partly drawn) [Compound 148, 3-(5-(4-(2-((R)-3-(4-amino-3-(4-phenoxyphenyl)-1H-pyrazolo[3,4-d]pyrimidin-1-yl)-[1,4′-bipiperidin]-1′-yl)ethyl)piperazin-1-yl)-1-oxoisoindolin-2-yl)piperidine-2,6-dione], for which the IC50 in the assay with JeKo-1 cells is more than 10 µM. Further, the IC50 in the assay with Mino cells lay in the range of 1 to 10 µM. At BTK, this molecule gave a maximal degradation (Dmax) of more than 75% and a DC50 of 0.01 to 0.05 µM.

For `Nc1ncnc2c1c(-c1ccc(Oc3ccccc3)cc1)nn2[C@@H]1CCCN(C2CCN(CCN3CCC(c4ccc5c(c4)C(=O)N(C4CCC(=O)NC4=O)C5=O)CC3)CC2)C1` (stereo partly drawn) [Compound 149, 5-(1-(2-((R)-3-(4-amino-3-(4-phenoxyphenyl)-1H-pyrazolo[3,4-d]pyrimidin-1-yl)-[1,4′-bipiperidin]-1′-yl)ethyl)piperidin-4-yl)-2-(2,6-dioxopiperidin-3-yl)isoindoline-1,3-dione], the IC50 in the assay with JeKo-1 cells was more than 10 µM; with Mino cells, 1 to 10 µM. The molecule further registered a Dmax at BTK of more than 90%. Moreover, the DC50 on BTK is 0.01 to 0.05 µM.

On to `Nc1ncnc2c1c(-c1ccc(Oc3ccccc3)cc1)nn2[C@@H]1CCCN(C2CCN(CCN3CCC(c4ccc5c(c4)CN(C4CCC(=O)NC4=O)C5=O)CC3)CC2)C1` (stereo partly drawn) [Compound 150, 3-(5-(1-(2-((R)-3-(4-amino-3-(4-phenoxyphenyl)-1H-pyrazolo[3,4-d]pyrimidin-1-yl)-[1,4′-bipiperidin]-1′-yl)ethyl)piperidin-4-yl)-1-oxoisoindolin-2-yl)piperidine-2,6-dione], for which the IC50 in the assay with JeKo-1 cells lay in the range of 1 to 10 µM. Moreover, the IC50 in the assay on Mino cells was more than 10 µM. Moreover, on BTK, the Dmax is more than 75% and the DC50 was in the range of 0.01 to 0.05 µM.

In the case of `Nc1ncnc2c1c(-c1ccc(Oc3ccccc3)cc1)nn2[C@@H]1CCCN(C2CCN(CCCN3CCN(c4ccc5c(c4)C(=O)N(C4CCC(=O)NC4=O)C5=O)CC3)CC2)C1` (stereo partly drawn) [Compound 151, 5-(4-(3-((R)-3-(4-amino-3-(4-phenoxyphenyl)-1H-pyrazolo[3,4-d]pyrimidin-1-yl)-[1,4′-bipiperidin]-1′-yl)propyl)piperazin-1-yl)-2-(2,6-dioxopiperidin-3-yl)isoindoline-1,3-dione], the IC50 with JeKo-1 cells and in the assay with Mino cells was more than 10 µM each time. The same molecule yielded a Dmax on BTK of more than 75%. In addition, the DC50 at BTK is more than 0.05 µM.

As to `Nc1ncnc2c1c(-c1ccc(Oc3ccccc3)cc1)nn2[C@@H]1CCCN(C2CCN(CCCN3CCN(c4ccc5c(c4)CN(C4CCC(=O)NC4=O)C5=O)CC3)CC2)C1` (stereo partly drawn) [Compound 152, 3-(5-(4-(3-((R)-3-(4-amino-3-(4-phenoxyphenyl)-1H-pyrazolo[3,4-d]pyrimidin-1-yl)-[1,4′-bipiperidin]-1′-yl)propyl)piperazin-1-yl)-1-oxoisoindolin-2-yl)piperidine-2,6-dione], the IC50 in the assay with JeKo-1 cells and in the assay with Mino cells was more than 10 µM each time. The same molecule returned a Dmax at BTK of more than 75%. The same molecule had a DC50 on BTK of more than 0.05 µM.

Turning to `Nc1ncnc2c1c(-c1ccc(Oc3ccccc3)cc1)nn2[C@@H]1CCCN(C2CCN(CCCN3CCC(c4ccc5c(c4)C(=O)N(C4CCC(=O)NC4=O)C5=O)CC3)CC2)C1` (stereo partly drawn) [Compound 153, 5-(1-(3-((R)-3-(4-amino-3-(4-phenoxyphenyl)-1H-pyrazolo[3,4-d]pyrimidin-1-yl)-[1,4′-bipiperidin]-1′-yl)propyl)piperidin-4-yl)-2-(2,6-dioxopiperidin-3-yl)isoindoline-1,3-dione], in the assay on JeKo-1 cells, the IC50 is more than 10 µM. The IC50 with Mino cells is more than 10 µM. In addition, at BTK, the greatest degradation seen (Dmax) is more than 75% and the DC50 is more than 0.05 µM.

On to `Nc1ncnc2c1c(-c1ccc(Oc3ccccc3)cc1)nn2[C@@H]1CCCN(C2CCN(CCCN3CCC(c4ccc5c(c4)CN(C4CCC(=O)NC4=O)C5=O)CC3)CC2)C1` (stereo partly drawn) [Compound 154, 3-(5-(1-(3-((R)-3-(4-amino-3-(4-phenoxyphenyl)-1H-pyrazolo[3,4-d]pyrimidin-1-yl)-[1,4′-bipiperidin]-1′-yl)propyl)piperidin-4-yl)-1-oxoisoindolin-2-yl)piperidine-2,6-dione], for which the IC50 with JeKo-1 cells was more than 10 µM. The IC50 with Mino cells was more than 10 µM. On BTK, this molecule yielded a maximal degradation (Dmax) of more than 75% and a 50% degradation concentration (DC50) of more than 0.05 µM.

Take `Nc1ncnc2c1c(-c1ccc(Oc3ccccc3)cc1)nn2[C@@H]1CCCN(C2CCN(CCCC3CCN(c4ccc5c(c4)C(=O)N(C4CCC(=O)NC4=O)C5=O)CC3)CC2)C1` (stereo partly drawn) [Compound 155, 5-(4-(3-((R)-3-(4-amino-3-(4-phenoxyphenyl)-1H-pyrazolo[3,4-d]pyrimidin-1-yl)-[1,4′-bipiperidin]-1′-yl)propyl)piperidin-1-yl)-2-(2,6-dioxopiperidin-3-yl)isoindoline-1,3-dione]: in the assay on JeKo-1 cells, the IC50 was more than 10 µM. Moreover, the IC50 in the assay on Mino cells is more than 10 µM. Moreover, on BTK, the maximal degradation (Dmax) is more than 50% and the DC50 was more than 0.05 µM.

Take `Nc1ncnc2c1c(-c1ccc(Oc3ccccc3)cc1)nn2[C@@H]1CCCN(C2CCN(CCCC3CCN(c4ccc5c(c4)CN(C4CCC(=O)NC4=O)C5=O)CC3)CC2)C1` (stereo partly drawn) [Compound 156, 3-(5-(4-(3-((R)-3-(4-amino-3-(4-phenoxyphenyl)-1H-pyrazolo[3,4-d]pyrimidin-1-yl)-[1,4′-bipiperidin]-1′-yl)propyl)piperidin-1-yl)-1-oxoisoindolin-2-yl)piperidine-2,6-dione]: the IC50 in the assay with JeKo-1 cells is more than 10 µM. Moreover, the IC50 in the assay with Mino cells is more than 10 µM. At BTK, this molecule gave a Dmax of more than 50% and a DC50 of more than 0.05 µM.

As for `Nc1ncnc2c1c(-c1ccc(Oc3ccccc3)cc1)nn2[C@@H]1CCCN(C2CCN(C(=O)N3CCC(c4ccc5c(c4)C(=O)N(C4CCC(=O)NC4=O)C5=O)CC3)CC2)C1` (stereo partly drawn) [Compound 157, 5-(1-((R)-3-(4-amino-3-(4-phenoxyphenyl)-1H-pyrazolo[3,4-d]pyrimidin-1-yl)-[1,4′-bipiperidine]-1′-carbonyl)piperidin-4-yl)-2-(2,6-dioxopiperidin-3-yl)isoindoline-1,3-dione], the IC50 with JeKo-1 cells was more than 10 µM. Besides, the IC50 in the assay with Mino cells was more than 10 µM. On BTK, this molecule gave a Dmax of more than 50% and a DC50 of more than 0.05 µM.

With `Nc1ncnc2c1c(-c1ccc(Oc3ccccc3)cc1)nn2[C@@H]1CCCN(C2CCN(C(=O)N3CCC(c4ccc5c(c4)CN(C4CCC(=O)NC4=O)C5=O)CC3)CC2)C1` (stereo partly drawn) [Compound 158, 3-(5-(1-((R)-3-(4-amino-3-(4-phenoxyphenyl)-1H-pyrazolo[3,4-d]pyrimidin-1-yl)-[1,4′-bipiperidine]-1′-carbonyl)piperidin-4-yl)-1-oxoisoindolin-2-yl)piperidine-2,6-dione], the IC50 in the assay with JeKo-1 cells is more than 10 µM. Further, in the assay with Mino cells, the IC50 is more than 10 µM. On BTK, this molecule came in with a Dmax of more than 50% and a half-maximal degradation concentration (DC50) of more than 0.05 µM.

In the case of `Nc1ncnc2c1c(-c1ccc(Oc3ccccc3)cc1)nn2[C@@H]1CCCN(C2CCN(C(=O)N3CCN(c4ccc5c(c4)CN(C4CCC(=O)NC4=O)C5=O)CC3)CC2)C1` (stereo partly drawn) [Compound 160, 3-(5-(4-((R)-3-(4-amino-3-(4-phenoxyphenyl)-1H-pyrazolo[3,4-d]pyrimidin-1-yl)-[1,4′-bipiperidine]-1′-carbonyl)piperazin-1-yl)-1-oxoisoindolin-2-yl)piperidine-2,6-dione], the IC50 in the assay on JeKo-1 cells was more than 10 µM. The IC50 with Mino cells is 1 to 10 µM. At BTK, this molecule yielded a Dmax of more than 50% and a DC50 of more than 0.05 µM.

Values taken from patent US12139492B2 (Endotarget Inc., priority 2021, dated 2024).
